Measurements: ChEMBL document CHEMBL1201862, “PubChem BioAssay data set” (2004)
Blank lines part the entries; values can stand above or below the compound they belong to. Active and inactive are the calls of the source.

Key:
[1] = molecular target: Heat shock protein HSP 90-alpha (Homo sapiens, UniProt P07900); experiment: Luminescence-based dose response biochemical high throughput screening assay for inhibitors of the Heat Shock Protein 90 (HSP90). [Related pubchem assays: 1831 (Summary AID.), 1846 (Confirmation screen.), 1789 (Primary screen.)]
[2] = molecular target: Serine/threonine-protein phosphatase PP1-alpha catalytic subunit (Homo sapiens, UniProt P62136); experiment: inhibition of protein phosphatase 1 activity – biochemical, fluorescence, dose response (AID 2394)
[3] = molecular target: T1, Tyrosine-protein phosphatase non-receptor type 22 (Homo sapiens, UniProt Q9Y2R2); type: functional;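 note: confirmatory dose-response retest of primary uHTS hits for inhibition of LYP phosphatase, measured by a fluorescence intensity read-out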
T1 sequence (Q9Y2R2 whole entry): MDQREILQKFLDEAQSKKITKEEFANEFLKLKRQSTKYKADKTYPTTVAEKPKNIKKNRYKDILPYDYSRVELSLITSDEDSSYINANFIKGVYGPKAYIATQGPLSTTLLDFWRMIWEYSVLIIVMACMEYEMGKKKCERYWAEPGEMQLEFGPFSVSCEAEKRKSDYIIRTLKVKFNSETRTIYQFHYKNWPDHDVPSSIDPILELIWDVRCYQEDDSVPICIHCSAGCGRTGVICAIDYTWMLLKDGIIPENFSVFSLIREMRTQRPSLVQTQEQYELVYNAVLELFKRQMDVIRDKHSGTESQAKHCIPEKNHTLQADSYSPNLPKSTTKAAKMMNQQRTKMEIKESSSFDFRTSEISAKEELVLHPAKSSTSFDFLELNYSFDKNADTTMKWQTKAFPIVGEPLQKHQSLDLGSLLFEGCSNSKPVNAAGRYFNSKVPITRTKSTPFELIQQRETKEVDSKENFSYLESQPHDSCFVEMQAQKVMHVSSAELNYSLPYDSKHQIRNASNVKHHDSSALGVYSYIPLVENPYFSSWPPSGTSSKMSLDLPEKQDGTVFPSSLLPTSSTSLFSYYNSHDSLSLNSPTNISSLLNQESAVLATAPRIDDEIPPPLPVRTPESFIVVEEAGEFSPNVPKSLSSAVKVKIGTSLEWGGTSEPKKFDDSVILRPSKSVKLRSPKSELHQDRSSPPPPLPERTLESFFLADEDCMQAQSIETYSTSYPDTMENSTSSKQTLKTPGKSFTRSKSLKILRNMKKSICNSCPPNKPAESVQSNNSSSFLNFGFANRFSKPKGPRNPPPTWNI

Sequence of Serine/threonine-protein phosphatase PP1-alpha catalytic subunit (P62136 whole entry): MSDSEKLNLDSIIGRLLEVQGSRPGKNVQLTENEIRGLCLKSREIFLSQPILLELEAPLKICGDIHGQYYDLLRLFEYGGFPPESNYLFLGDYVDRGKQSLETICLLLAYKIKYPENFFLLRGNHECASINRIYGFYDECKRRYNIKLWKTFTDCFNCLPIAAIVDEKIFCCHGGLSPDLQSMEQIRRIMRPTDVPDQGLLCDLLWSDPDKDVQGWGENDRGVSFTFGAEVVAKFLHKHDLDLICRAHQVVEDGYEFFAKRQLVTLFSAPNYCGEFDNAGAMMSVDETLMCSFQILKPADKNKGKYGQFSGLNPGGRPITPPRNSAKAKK

SMILES: COC(=O)c1cc(C)nc2c1C(=O)C(=O)C=C2N1CCOCC1
- IC50 [1]: 3.21 µM (active)

- IC50 [2]: 49 µM (not active)
SMILES: CCOC(=O)C1=C(C)OC2(O)c3ccccc3C(=O)C12O (stereo not drawn)

SMILES: N#Cc1c(N2CCCC2)nc(N)c2c(N)nc(N3CCCC3)cc12
- IC50 [3]: > 79.4 µM (inactive)
